From patent US20240287172A1, “PROTEIN BINDERS TO IRHOM2 EPITOPES” (SCIRHOM GMBH, priority 2019, published 2024)

Tested on: PMA-induced release of endogenous TNFα from human monocytic U-937 cells
Experiment: ELISA-based TNFα release assay, PMA-induced, U-937 cells
Format: cell-based
Details: U-937, 1 h, PMA 25 ng/ml, Batimastat at 10 μM
Procedure: In brief, on day 1, Nunc black MaxiSorp® 96-well plates (Thermo Fisher Scientific, USA) were coated overnight with 100 μl per well of mouse anti-human TNFα capture antibody (provided as part of the DuoSet ELISA kit) at 4 μg/ml TBS at 4° C. On day 2, the capture antibody solution was removed and MaxiSorp® plates were blocked with 300 μl per well of TBS, 1% BSA at room temperature for 1-2 hours. Meanwhile, 80,000 U-937 (European Collection of Authenticated Cell Cultures, UK) cells in 80 μl of normal growth medium were seeded in each well of Greiner CELLSTAR V-bottom 96-well plates (Thermo Fisher Scientific, USA) and pre-incubated with 20 μl per well of standard growth medium supplemented with Batimastat (BB94, Abcam, UK) at 50 μM as positive control (for a final concentration of 10 μM in the resulting 100 μl sample volume), mouse IgG antibody (Thermo Fisher Scientific, USA) at 5 μg/ml as isotype control (for a final concentration of 1 μg/ml in the resulting 100 μl sample volume) or antibodies of the invention at 5 μg/ml (for a final concentration of 1 μg/ml in the resulting 100 μl sample volume) at 37° C., 5% CO2 for 30 minutes. […] Using an infinite M1000 (Tecan Group, Switzerland) microplate reader, the fluorescence of each well was collected at an excitation wavelength of 435 nm and an emission wavelength of 555 nm. […]

**Q.** Which inhibition at 10 µM (murine (m) and chimeric (ch) antibodies and IgG at 3 μg/ml) does the source give for CNC(=O)[C@H](Cc1ccccc1)NC(=O)[C@H](CC(C)C)[C@H](CSc1cccs1)C(=O)NO [Batimastat] here?
**A.** 98.7%

**Q.** And the inhibition at 10 µM (recombinant murine antibodies and IgG at 1 μg/ml)?
**A.** 100%
